Key:
Assay type in all cases: in vivo
Setaria faberi (SETFA) [1] = experiment: Pre-emergence herbicidal activity, glasshouse pot test; design: key: 5=total damage to plant; 0=no damage to plant; settings: 1000 g/ha, pre-emergence spray, evaluated after 13 days, damage score 0-5
Protocol: (§1) Seeds of a variety of test species were sown in standard soil in pots: Triticum aestivium (TRZAW), Avena fatua (AVEFA), Alopecurus myosuroides (ALOMY), Echinochloa crus-galli (ECHCG), Lolium perenne (LOLPE), and Setaria faberi (SETFA). After cultivation for one day (pre-emergence) under controlled conditions in a glasshouse (at 24/16° C., day/night; 14 hours light; 65% humidity), the plants were sprayed with an aqueous spray solution derived from the formulation of the technical active ingredient in acetone/water (50:50) solution containing 0.5% Tween 20 (polyoxyethelyene sorbitan monolaurate, CAS RN 9005-64-5). The test plants were then grown in a glasshouse under controlled conditions (at 24/16° C., day/night; 14 hours light; 65% humidity) and watered twice daily. After 13 days, the test was evaluated (5=total damage to plant; 0=no damage to plant).

Lolium perenne (LOLPE) [2] = experiment: as above; design: key: 5=total damage to plant; 0=no damage to plant; settings: 1000 g/ha, pre-emergence spray, evaluated after 13 days, damage score 0-5
Protocol: as §1

[3] = system: Echinochloa crus-galli (ECHCG); experiment: as above; design: key: 5=total damage to plant; 0=no damage to plant; settings: 1000 g/ha, pre-emergence spray, evaluated after 13 days, damage score 0-5
Protocol: as §1

Avena fatua (AVEFA) [4] = experiment: as above; design: key: 5=total damage to plant; 0=no damage to plant; settings: 1000 g/ha, pre-emergence spray, evaluated after 13 days, damage score 0-5
Protocol: as §1

[5] = system: Triticum aestivium (TRZAW); experiment: as above; design: key: 5=total damage to plant; 0=no damage to plant; settings: 1000 g/ha, pre-emergence spray, evaluated after 13 days, damage score 0-5
Protocol: as §1

[6] = system: Alopecurus myosuroides (ALOMY); experiment: as above; design: key: 5=total damage to plant; 0=no damage to plant; settings: 1000 g/ha, pre-emergence spray, evaluated after 13 days, damage score 0-5
Protocol: as §1

Avena fatua (AVEFA) [7] = experiment: Post-emergence herbicidal activity, glasshouse pot test; settings: 1000 g/ha, post-emergence spray after 8 days cultivation, evaluated after 13 days, damage score 0-5
Protocol: (§2) Seeds of a variety of test species were sown in standard soil in pots: Triticum aestivium (TRZAW), Avena fatua (AVEFA), Alopecurus myosuroides (ALOMY), Echinochloa crus-galli (ECHCG), Lolium perenne (LOLPE), and Setaria faberi (SETFA). After 8 days cultivation (post-emergence) under controlled conditions in a glasshouse (at 24/16° C., day/night; 14 hours light; 65% humidity), the plants were sprayed with an aqueous spray solution derived from the formulation of the technical active ingredient in acetone/water (50:50) solution containing 0.5% Tween 20 (polyoxyethelyene sorbitan monolaurate, CAS RN 9005-64-5). The test plants were then grown in a glasshouse under controlled conditions (at 24/16° C., day/night; 14 hours light; 65% humidity) and watered twice daily. After 13 days, the test was evaluated (5=total damage to plant; 0=no damage to plant).

Setaria faberi (SETFA) [8] = experiment: as above; design: key: 5=total damage to plant; 0=no damage to plant; settings: 1000 g/ha, post-emergence spray after 8 days cultivation, evaluated after 13 days, damage score 0-5
Protocol: as §2

Lolium perenne (LOLPE) [9] = experiment: as above; design: key: 5=total damage to plant; 0=no damage to plant; settings: 1000 g/ha, post-emergence spray after 8 days cultivation, evaluated after 13 days, damage score 0-5
Protocol: as §2

[10] = system: Echinochloa crus-galli (ECHCG); experiment: as above; design: key: 5=total damage to plant; 0=no damage to plant; settings: 1000 g/ha, post-emergence spray after 8 days cultivation, evaluated after 13 days, damage score 0-5
Protocol: as §2

[11] = system: Triticum aestivium (TRZAW); experiment: as above; design: key: 5=total damage to plant; 0=no damage to plant; settings: 1000 g/ha, post-emergence spray after 8 days cultivation, evaluated after 13 days, damage score 0-5
Protocol: as §2

[12] = system: Alopecurus myosuroides (ALOMY); experiment: as above; design: key: 5=total damage to plant; 0=no damage to plant; settings: 1000 g/ha, post-emergence spray after 8 days cultivation, evaluated after 13 days, damage score 0-5
Protocol: as §2

SMILES	Control of weed species after pre-emergence application, SETFA (Setaria faberi (SETFA) [1])	Control of weed species after pre-emergence application, LOLPE (Lolium perenne (LOLPE) [2])	Control of weed species after pre-emergence application, ECHCG [3]	Control of weed species after pre-emergence application, AVEFA (Avena fatua (AVEFA) [4])	Control of weed species after pre-emergence application, TRAZW [5]	Control of weed species after pre-emergence application, ALOMY [6]	Control of weed species after post-emergence application, AVEFA (Avena fatua (AVEFA) [7])	Control of weed species after post-emergence application, SETFA (Setaria faberi (SETFA) [8])	Control of weed species after post-emergence application, LOLPE (Lolium perenne (LOLPE) [9])	Control of weed species after post-emergence application, ECHCG [10]	Control of weed species after post-emergence application, TRAZW [11]	Control of weed species after post-emergence application, ALOMY [12]
CC(=O)Nc1cnc(-c2cncnc2)nc1C(F)(F)F [Compound F31]	4	1	4	2	1	1	3	4	2	4	1	1
CC(C)(C)C(=O)Nc1cnc(-c2cncc(F)c2)nc1C(F)(F)F [Compound F6]	3	1	4	2	0	0	3	4	2	5	1	1
O=C(Nc1cnc(-c2cncc(F)c2)nc1C(F)(F)F)C1CCCCC1 [Compound F27]	0	0	0	0	0	0	1	2	0	3	0	0
CCC(=O)N(C(=O)CC)c1cnc(-c2cncc(F)c2)nc1C(F)(F)F [Compound F7]	2	1	2	1	0	0	2	4	2	5	1	1
CC(C)=CC(=O)Nc1cnc(-c2cncc(F)c2)nc1C(F)(F)F [Compound F24]	5	1	2	1	1	0	3	4	1	5	1	1
CC(C)C(=O)Nc1cnc(-c2cncnc2)nc1C(F)(F)F [Compound F32]	4	1	4	1	1	1	3	4	2	4	1	1
O=C(CCC1CCCC1)Nc1cnc(-c2cncc(F)c2)nc1C(F)(F)F [Compound F19]	4	1	4	1	1	0	2	4	1	4	0	0
O=C(Nc1cnc(-c2cncc(F)c2)nc1C(F)(F)F)C(Cl)(Cl)Cl [Compound F5]	5	0	3	1	0	0	2	5	3	4	1	2
O=C(Nc1cnc(-c2cncc(F)c2)nc1C(F)(F)F)C(Cl)Cl [Compound F8]	4	1	4	1	1	0	2	5	2	4	1	1
CCC(=O)Nc1cnc(-c2cncc(F)c2)nc1C(F)(F)F [Compound F4]	4	0	3	3	0	1	4	4	2	4	1	0
O=C(Nc1cnc(-c2cncc(F)c2)nc1C(F)(F)F)c1cccs1 [Compound F9]	4	1	2	1	0	0	2	4	2	4	1	0
